SMILES strings stand for the structures. Structures can show the parent of a compound that is named as a salt. Some results are limits rather than exact numbers.

One data set has as its target NR1A/2A NMDA receptor (Rattus norvegicus, UniProt P35439+Q00959). Briefly: Xenopus oocyte expression system, two-electrode voltage clamp, NR1A/2A. The note with it: cloned NR1A/2A subunits expressed in Xenopus oocytes; inhibition of agonist-evoked membrane current; read-out: 1A/2A IC50. It counts as cell-based. The text has this:
(§1) Electrophysiological assays may be utilized to characterize the actions of potential subtype-selective ligands at NMDA receptors expressed in Xenopus oocytes. The ligand may be assayed at the different subunit combinations of cloned rat NMDA receptors corresponding to the four putative NMDA receptor subtypes (Moriyoshi et al., Nature (Lond.) 354:31-37 (1991); Monyer et al., Science (Washington, D.C.) 256:1217-1221 (1992); Kutsuwada et al., Nature (Lond.) 358:36-41 (1992); Sugihara et al., Biochem. Biophys. Res. Comm. 185:826-832 (1992)).
(§2) Using fixed saturating concentrations of agonists (glutamate 100 μM, glycine 1-10 μM depending on subunit combination), the inhibitory potency of a putative subtype-selective ligand may be assayed at the NMDA receptors assembled from NR1A/2A, NR1A/2B, NR1A/2C and NR1A/2D subunit combinations.
(§3) The Xenopus oocyte expression system. Mature female Xenopus laevis were anaesthetized (20-40 min) using 0.15% 3-aminobenzoic acid ethyl ester (MS-222) and 2-4 ovarian lobes were surgically removed. Oocytes at developmental stages IV-VI (Dumont, J. N., J. Morphol. 136:153-180 (1972)), were dissected from the ovary still surrounded by enveloping ovarian tissues. Follicle-enclosed oocytes were micro-injected with 1:1 mixtures of cRNA:NR1A+NR2A, 2B, 2C or 2D; injecting ˜2, 5, or 20 ng of RNA encoding each receptor subunit. NR1A encoding cRNA was injected alone at ˜20 ng. Oocytes were stored in Barth's medium containing (in mM): NaCl, 88; KCl, 1; CaCl2, 0.41; Ca(NO3)2, 0.33; MgSO4, 0.82; NaHCO3, 2.4; HEPES 5; pH 7.4, with 0.1 mg/mL gentamycin sulphate. While oocytes were still surrounded by enveloping ovarian tissues the Barth's medium was supplemented with 0.1% bovine serum. Oocytes were defolliculated 1-2 days following injections by treatment with collagenase (0.5 mg/mL Sigma Type I for 0.5-1 hr) (Miledi and Woodward, J. Physiol. (Lond.) 416:601-621 (1989)) and subsequently stored in serum-free medium.
(§4) Electrical recordings were made using a conventional two-electrode voltage clamp (Dagan TEV-200) over periods ranging between 3-21 days following injection. Oocytes were placed in a 0.1 mL recording chamber continuously perfused (5-15 mL min^−1) with frog Ringer's solution containing (in mM): NaCl, 115; KCl, 2; CaCl2, 1.8; HEPES, 5; pH 7.4. Drugs were applied by bath perfusion. When using the more rapid flow rates, half-times for mid-chamber solution changes were between 2-3 sec, however, exchange rates for drug solutions at the oocyte surface (i.e. beneath the vitelline envelope and among the tangles of microvilli) were probably considerably longer (Woodward et al., Mol. Pharmacol. 41:89-103 (1992)). Zero-Ca^2+/Ba^2+ Ringer had the composition (in mM): NaCl, 115; KCl, 2; BaCl2, 1.8; HEPES, 5; pH 7.4. Intraoocyte injections were made by pneumatic pressure-pulse ejection from micropipettes (Miledi and Parker, J. Physiol. (Lond.) 357:173-183 (1984)). Injection solutions of EGTA (40-400 mM) and BAPTA (50-500 mM) were made up in H2O, pH adjusted to 7.4 with KOH or HCl, and filtered to minimize plugging (Acrodisc-13, […]). Pressure was set between 200-400 kPa. The volume of injections was regulated by adjusting the time of pulses (0.1-1 sec) and was estimated by measuring the diameters of ejected droplets.
(§5) Concentration-inhibition curves were fit with equation 2.
(§6) I/Icontrol=1/(1+([antagonist]/10^−pIC50)^n) Eq. 2
(§7) in which Icontrol is the current evoked by agonists alone, pIC50=−log IC50, […] is the concentration of antagonist that produces half maximal inhibition, and n is the slope factor. For incomplete curves analysis by fitting was unreliable and IC50 values were calculated by simple regression over linear portions of the curves (Origin: Microcal Software).
(§8) Drugs were initially dissolved at concentrations of 10-100 mM in DMSO. Dilutions were then made to generate a series of DMSO stock solutions over the range 10 μM to 100 mM. Working solutions were made by 1000-3000 fold dilution of stocks into Ringer. […]

The target in the next data set is NR1A/2C NMDA receptor (Rattus norvegicus, UniProt P35439+Q00961). Briefly: Xenopus oocyte expression system, two-electrode voltage clamp, NR1A/2C. The note with it: cloned NR1A/2C subunits expressed in Xenopus oocytes; inhibition of agonist-evoked membrane current; read-out: 1A/2C IC50. It counts as cell-based.
Excerpt: as §1, §2, §3, §4, §5, §6, §7, §8

A further data set addresses NR1A/2B NMDA receptor (Rattus norvegicus, UniProt P35439+Q00960). Briefly: Xenopus oocyte expression system, two-electrode voltage clamp, NR1A/2B. Type of data set: cell-based. The note with it: cloned NR1A/2B subunits expressed in Xenopus oocytes; inhibition of agonist-evoked membrane current; read-out: 1A/2B IC50.
Excerpt: as §1, §2, §3, §4, §5, §6, §7, §8
In general terms: Two-electrode voltage clamp holds a large cell at a set potential and records current.

NR1A/2C NMDA receptor, sequence (Q00961 20-1237, other chains not shown): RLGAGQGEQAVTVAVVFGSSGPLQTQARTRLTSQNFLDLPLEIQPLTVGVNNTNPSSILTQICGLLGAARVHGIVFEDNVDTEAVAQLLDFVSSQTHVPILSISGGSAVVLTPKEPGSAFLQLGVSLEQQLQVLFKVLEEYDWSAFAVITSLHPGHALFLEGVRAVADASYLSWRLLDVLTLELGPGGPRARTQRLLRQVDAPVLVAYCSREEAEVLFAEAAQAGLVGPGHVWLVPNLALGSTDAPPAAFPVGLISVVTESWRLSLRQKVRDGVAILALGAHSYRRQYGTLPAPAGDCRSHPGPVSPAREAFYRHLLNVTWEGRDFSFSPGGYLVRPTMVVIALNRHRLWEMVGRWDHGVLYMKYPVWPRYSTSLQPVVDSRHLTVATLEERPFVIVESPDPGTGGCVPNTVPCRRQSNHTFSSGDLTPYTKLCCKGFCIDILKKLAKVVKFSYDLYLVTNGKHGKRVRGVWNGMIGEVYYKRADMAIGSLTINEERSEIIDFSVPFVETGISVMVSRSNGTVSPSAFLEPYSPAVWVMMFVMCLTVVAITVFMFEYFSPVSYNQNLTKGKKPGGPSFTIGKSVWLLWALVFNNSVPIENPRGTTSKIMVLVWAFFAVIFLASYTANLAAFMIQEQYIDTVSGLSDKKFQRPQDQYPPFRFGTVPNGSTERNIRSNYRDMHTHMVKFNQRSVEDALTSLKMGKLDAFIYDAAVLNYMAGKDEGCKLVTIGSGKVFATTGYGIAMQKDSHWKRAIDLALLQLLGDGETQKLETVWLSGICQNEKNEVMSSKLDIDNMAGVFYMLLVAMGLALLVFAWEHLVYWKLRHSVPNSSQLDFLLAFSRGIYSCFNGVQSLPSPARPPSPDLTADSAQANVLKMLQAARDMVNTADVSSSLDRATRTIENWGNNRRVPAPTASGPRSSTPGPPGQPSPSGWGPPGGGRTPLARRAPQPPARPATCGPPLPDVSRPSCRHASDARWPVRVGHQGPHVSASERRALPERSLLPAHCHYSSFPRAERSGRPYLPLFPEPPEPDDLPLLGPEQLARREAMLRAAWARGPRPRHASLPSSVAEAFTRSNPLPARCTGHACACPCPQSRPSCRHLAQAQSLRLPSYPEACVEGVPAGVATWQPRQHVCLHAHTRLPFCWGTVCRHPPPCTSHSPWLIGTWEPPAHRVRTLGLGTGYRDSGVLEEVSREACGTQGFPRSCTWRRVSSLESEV
NR1A/2A NMDA receptor, sequence (Q00959 20-1464 limits assumed, other chains not shown): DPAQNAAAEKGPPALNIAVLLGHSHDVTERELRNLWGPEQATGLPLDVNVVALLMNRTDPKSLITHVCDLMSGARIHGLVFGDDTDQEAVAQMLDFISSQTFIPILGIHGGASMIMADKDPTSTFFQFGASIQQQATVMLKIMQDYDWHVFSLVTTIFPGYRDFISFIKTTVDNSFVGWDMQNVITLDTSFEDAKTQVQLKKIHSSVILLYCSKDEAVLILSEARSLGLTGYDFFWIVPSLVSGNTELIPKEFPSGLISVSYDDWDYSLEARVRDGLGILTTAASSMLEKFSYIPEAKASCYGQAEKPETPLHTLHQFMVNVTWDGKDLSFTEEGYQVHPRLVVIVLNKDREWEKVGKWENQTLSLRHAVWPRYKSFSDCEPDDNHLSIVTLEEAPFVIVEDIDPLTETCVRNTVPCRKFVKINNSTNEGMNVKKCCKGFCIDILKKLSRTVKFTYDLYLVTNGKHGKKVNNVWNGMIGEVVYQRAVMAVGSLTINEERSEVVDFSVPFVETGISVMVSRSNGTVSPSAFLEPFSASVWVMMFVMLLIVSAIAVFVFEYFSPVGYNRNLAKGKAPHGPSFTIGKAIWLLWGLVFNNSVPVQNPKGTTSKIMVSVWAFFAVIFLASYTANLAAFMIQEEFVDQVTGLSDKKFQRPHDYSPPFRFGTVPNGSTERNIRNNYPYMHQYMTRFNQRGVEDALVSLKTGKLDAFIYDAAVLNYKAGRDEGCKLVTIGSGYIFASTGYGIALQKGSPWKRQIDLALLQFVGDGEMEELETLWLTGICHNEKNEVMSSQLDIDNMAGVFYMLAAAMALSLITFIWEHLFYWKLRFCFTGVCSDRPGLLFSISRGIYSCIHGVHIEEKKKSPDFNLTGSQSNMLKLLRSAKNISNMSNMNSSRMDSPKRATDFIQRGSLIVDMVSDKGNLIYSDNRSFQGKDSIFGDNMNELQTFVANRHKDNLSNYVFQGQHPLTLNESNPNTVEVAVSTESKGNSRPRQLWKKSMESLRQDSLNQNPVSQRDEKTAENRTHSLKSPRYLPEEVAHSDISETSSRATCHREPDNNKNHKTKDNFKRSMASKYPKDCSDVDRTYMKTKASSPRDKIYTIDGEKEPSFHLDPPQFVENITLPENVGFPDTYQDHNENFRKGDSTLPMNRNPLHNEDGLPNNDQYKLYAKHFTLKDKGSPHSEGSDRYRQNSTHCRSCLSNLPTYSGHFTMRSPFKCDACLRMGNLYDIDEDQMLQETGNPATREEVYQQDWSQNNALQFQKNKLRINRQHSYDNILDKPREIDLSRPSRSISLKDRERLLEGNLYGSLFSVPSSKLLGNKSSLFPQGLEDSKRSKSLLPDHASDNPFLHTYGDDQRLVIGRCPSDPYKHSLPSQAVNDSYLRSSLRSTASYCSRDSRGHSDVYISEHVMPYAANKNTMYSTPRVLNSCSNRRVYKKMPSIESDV
NR1A/2B NMDA receptor, sequence (Q00960 27-1482, other chains not shown): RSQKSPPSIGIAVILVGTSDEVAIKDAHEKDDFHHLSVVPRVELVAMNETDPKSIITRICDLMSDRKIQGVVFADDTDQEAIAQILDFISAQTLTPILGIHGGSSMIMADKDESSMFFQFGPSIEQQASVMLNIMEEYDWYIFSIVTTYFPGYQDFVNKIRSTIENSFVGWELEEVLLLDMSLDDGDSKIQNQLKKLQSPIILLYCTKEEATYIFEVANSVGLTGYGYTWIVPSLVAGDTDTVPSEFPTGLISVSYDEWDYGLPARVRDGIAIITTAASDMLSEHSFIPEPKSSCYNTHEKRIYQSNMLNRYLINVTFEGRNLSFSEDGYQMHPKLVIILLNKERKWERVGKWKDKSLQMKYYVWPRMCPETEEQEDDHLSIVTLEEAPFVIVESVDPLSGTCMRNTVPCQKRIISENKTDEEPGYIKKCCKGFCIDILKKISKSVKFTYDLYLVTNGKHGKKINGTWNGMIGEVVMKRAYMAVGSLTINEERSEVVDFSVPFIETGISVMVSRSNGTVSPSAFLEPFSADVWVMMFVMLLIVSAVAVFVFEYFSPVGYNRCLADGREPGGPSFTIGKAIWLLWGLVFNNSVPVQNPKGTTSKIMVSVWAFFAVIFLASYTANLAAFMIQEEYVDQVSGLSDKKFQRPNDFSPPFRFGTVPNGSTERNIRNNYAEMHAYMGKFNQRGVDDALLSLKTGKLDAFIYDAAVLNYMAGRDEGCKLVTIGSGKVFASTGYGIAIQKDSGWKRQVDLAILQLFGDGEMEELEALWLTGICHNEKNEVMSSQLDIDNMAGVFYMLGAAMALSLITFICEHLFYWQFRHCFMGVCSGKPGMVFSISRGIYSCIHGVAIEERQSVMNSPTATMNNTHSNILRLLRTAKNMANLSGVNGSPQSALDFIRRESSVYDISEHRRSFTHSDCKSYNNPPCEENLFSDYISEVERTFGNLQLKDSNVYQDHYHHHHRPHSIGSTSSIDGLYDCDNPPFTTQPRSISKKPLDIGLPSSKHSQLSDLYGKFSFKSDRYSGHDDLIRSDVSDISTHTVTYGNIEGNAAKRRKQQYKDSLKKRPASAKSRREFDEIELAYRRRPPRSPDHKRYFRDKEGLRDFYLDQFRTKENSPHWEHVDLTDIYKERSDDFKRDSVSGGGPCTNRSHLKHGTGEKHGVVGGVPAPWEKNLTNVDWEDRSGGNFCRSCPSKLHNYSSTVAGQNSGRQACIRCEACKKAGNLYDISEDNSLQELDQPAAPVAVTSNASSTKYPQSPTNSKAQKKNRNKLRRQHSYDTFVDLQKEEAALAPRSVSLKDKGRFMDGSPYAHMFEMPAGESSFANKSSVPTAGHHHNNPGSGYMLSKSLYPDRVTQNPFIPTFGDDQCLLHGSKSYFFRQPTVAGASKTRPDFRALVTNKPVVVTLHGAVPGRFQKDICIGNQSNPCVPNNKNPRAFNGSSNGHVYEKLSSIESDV

As to `O=C(CCCN1CCc2c([nH]c3ccccc23)C1)c1ccc(F)cc1`, the melting point – broadly, the temperature of the solid-liquid transition – lay within 188 to 190 °C.

Compound `Br.c1ccc(CC2CCCN(CCCOc3ccccc3)C2)cc1` (centres unmarked) showed a melting point of 148 to 149 °C.

In the case of `Br.c1ccc(CC2CCCN(CCOc3ccccc3)C2)cc1` (centres unmarked), the melting point lay within 93 to 94 °C.

On to `Br.c1ccc(CCCCN2CCCC(Cc3ccccc3)C2)cc1` (centres unmarked), for which the melting point was 105 to 107 °C.

On to `Br.c1ccc(CCN2CCCC(Cc3ccccc3)C2)cc1` (centres unmarked), for which the melting point is 137 to 142 °C.

The compound `Br.FC(F)(F)c1cccc(CCN2CCCC(Cc3ccccc3)C2)c1` (centres unmarked) returned a melting point of 152 to 154 °C.

In turn, `Br.Clc1ccc(CCN2CCCC(Cc3ccccc3)C2)cc1` (centres unmarked) displayed a melting point of 143 to 145 °C.

Turning to `Br.COc1ccc(CCN2CCCC(Cc3ccccc3)C2)cc1` (centres unmarked), the melting point fell in the range of 74 to 78 °C.

Turning to `Cl.O=C(c1ccc(F)cc1)C1CCN(CCOc2ccc(F)cc2)CC1`, the melting point is 138 to 141 °C.

With `OCCCN1CCC(Cc2ccccc2)CC1` (as salt: hydrobromid) [Ex. 83, 4-Benzyl-1-(3-hydroxypropyl)piperidine hydrobromide], the melting point lay in the range of 122 to 124 °C.

Turning to `OCCCCN1CCC(Cc2ccccc2)CC1` (as salt: hydrobromid) [Ex. 86, 4-Benzyl-1-(4-hydroxybutyl)piperidine hydrobromide], the melting point lay in the range of 129 to 130 °C.

`OCCCN1CCC(Cc2ccc(Cl)cc2)CC1` (as salt: hydrobromid) [Ex. 89, 4-(4-Chlorobenzyl)-1-(3-hydroxypropyl) piperidine hydrobromide] gave a melting point of 139.5 to 140 °C.

On to `OCCCN1CCC(Cc2ccc(F)cc2)CC1` (as salt: hydrobromid) [Ex. 90, 4-(4-Fluorobenzyl)-1-(3-hydroxypropyl) piperidine hydrobromide], for which the melting point lay in the range of 108 to 110 °C.

Regarding `COc1ccc(CC2CCN(CCCO)CC2)cc1` (as salt: hydrobromid) [Ex. 93, 1-(3-Hydroxypropyl)-4-(4-methoxybenzyl) piperidine hydrobromide], the melting point fell in the range of 129 to 131 °C.

`COc1ccc(C(=O)C2CCN(CCCO)CC2)cc1` (as salt: hydrobromid) [Example 78, 1-(3-Hydroxypropyl)-4-(4-methoxybenzoyl)piperidine]: the melting point is 148 to 151 °C.

`OC1(Cc2ccccc2)CCN(CCCc2ccccc2)CC1` (as salt: hydrochloride) [Ex. 16, 4-Benzyl-4-hydroxy-1-(3-phenylpropyl)piperidine] yielded a melting point of 156 to 157 °C.

In the case of `c1ccc(OCCN2CCc3ccccc3C2)cc1` (as salt: hydrochloride) [Ex. 18, N-(2-Phenoxyethyl)-1,2,3,4-tetrahydroisoquinoline], the melting point is 181 to 182 °C.

On to `c1ccc(OCCCN2CCc3ccccc3C2)cc1` (as salt: hydrochloride) [Ex. 19, N-(3-Phenoxypropyl)-1,2,3,4-tetrahydroisoquinoline], for which the melting point was in the range of 194 to 195 °C.

Compound `O=C(c1ccccc1)C1CCN(CCOc2ccccc2)CC1` (as salt: hydrochloride) [Ex. 27, 4-Benzoyl-1-(2-phenoxyethyl)piperidine] registered a melting point of 161 to 162 °C.

`CC(O)CCN1CCC(Cc2ccc(F)cc2)CC1` (centres unmarked) (as salt: hydrochloride) [Ex. 91, 4-(4-Fluorobenzyl)-1-(3-hydroxybutyl) piperidine hydrochloride] showed a melting point of 99 to 103 °C.

In turn, `C[C@@H](CO)CN1CCC(Cc2ccc(F)cc2)CC1` (as salt: hydrochloride) [Ex. 92, (R)-4-(4-Fluorobenzyl)-1-(3-hydroxy-2-methylpropyl) piperidine hydrochloride] registered a melting point of 128 to 130 °C.

`CC(O)CCN1CCC(Cc2ccc(N)cc2)CC1` (centres unmarked) (as salt: hydrochloride) [Ex. 105, 4-(4-aminobenzyl)-1-(3-hydroxy-butyl) piperidine hydrochloride] returned a melting point of 155 to 160 °C.

With `O=c1[nH]c2ccc(OCCCN3CCc4ccccc4C3)cc2[nH]1` (as salt: hydrochloride) [Ex. 108, N-(3-(2-oxobenzimidazol-5-oxy)propyl)-1,2,3,4-tetrahydroisoquinoline], the melting point was 210 to 215 °C (dec.).

Take `Clc1ccc(CC2CCN(C3CCc4ccccc4C3)CC2)cc1` (centres unmarked) (as salt: hydrochloride) [Example 98, 4-(4-Chlorobenzyl)-1-(tetralin-2-yl)piperidine hydrochloride]: the melting point was 243 to 245 °C (dec.).

For the compound `c1ccc(OCCCN2CCc3c([nH]c4ccccc34)C2)cc1` [Ex. 25, 2-(3-Phenoxypropyl)-1,2,3,4-tetrahydro-9H-pyrido[3,4-b]indole], the melting point fell in the range of 123 to 124 °C. On NR1A/2A NMDA receptor, the IC50 is 60 µM. In addition, on NR1A/2C NMDA receptor, the IC50 turned out to be 175 µM. In addition, on NR1A/2B NMDA receptor, the IC50 was 9 µM.

The compound `c1ccc(CCCN2CCc3c([nH]c4ccccc34)C2)cc1` [Ex. 26, 2-(3-Phenylpropyl)-1,2,3,4-tetrahydro-9H-pyrido[3,4-b]indole] showed a melting point of 130 to 131 °C. The IC50 on NR1A/2A NMDA receptor was determined as 30 µM. Also, the IC50 on NR1A/2C NMDA receptor was 105 µM. Besides, on NR1A/2B NMDA receptor, the IC50 worked out at 15 µM.

`OCCN1CCC(Cc2ccccc2)CC1` [Ex. 82, 4-Benzyl-1-(2-hydroxyethyl)piperidine] showed a melting point of 62 to 64 °C. The IC50 on NR1A/2A NMDA receptor was 290 µM. Moreover, the IC50 on NR1A/2C NMDA receptor was > 300 µM. Moreover, at NR1A/2B NMDA receptor, the IC50 was determined as 3.3 µM.

Consider `CC(O)CCN1CCC(Cc2ccc([N+](=O)[O-])cc2)CC1.Cl` (centres unmarked) [Ex. 101, 4-(4-nitrobenzyl)-1-(3-hydroxybutyl) piperidine hydrochloride], for which the melting point is 105 to 107 °C. In addition, the IC50 on NR1A/2A NMDA receptor amounted to 260 µM. For the same compound, at NR1A/2B NMDA receptor, the IC50 came out at 280 µM.

As to `O=c1[nH]c2ccc(OCCCN3CCc4ccccc4C3)cc2[nH]1` [Ex. 108, N-(3-(2-oxobenzimidazol-5-oxy)propyl)-1,2,3,4-tetrahydroisoquinoline], the IC50 was 24 µM at NR1A/2A NMDA receptor, > 300 µM at NR1A/2C NMDA receptor and 7.5 µM at NR1A/2B NMDA receptor.

With `O=c1[nH]c2ccc(OCCN3CCc4ccccc4C3)cc2[nH]1` [Ex. 109, N-(2-(2-oxobenzimidazol-5-oxy)ethyl)-1,2,3,4-tetrahydroisoquinoline], the IC50 on NR1A/2A NMDA receptor was 190 µM; on NR1A/2C NMDA receptor, > 300 µM; at NR1A/2B NMDA receptor, 140 µM.

For the compound `O=C(c1ccc(F)cc1)C1CCN(CCCO)CC1` [Example 77, 4-(p-fluorobenzoyl)-1-(3-hydroxypropyl)piperidine], the melting point is 106 to 108 °C.

In turn, `O=C(c1ccccc1O)C1CCN(CCCO)CC1` [Example 79, 4-(2-Hydroxybenzoyl)-1-(3-hydroxypropyl)piperidine] had a melting point of 77 to 80 °C.

The record behind these values is patent US6534522B2, “Subtype-selective NMDA receptor ligands and the use thereof” (Warner-Lambert Company, priority 1995, dated 2003).
